The subject of data set [1] is rats. The data set is classed as in vivo. The method, then:
(§1) GAT358 was assessed in two different behavioral tests, the Taste Reactivity (TR) Test and the Light Dark Emergence (LDE) Test. The TR Test is used to assess the possibility of a drug inducing nausea in rats as measured by conditioned gaping to infusion of a 0.01% saccharin solution previously paired with drug administration.
GAT358 was dissolved in a mixture of 4% DMSO, 1% Tween80, 1% Cremophor and 94% Saline (for doses of 5, 10 and 20 mg/kg) and injected at a volume of 3 ml/kg. Assessed was the vehicle (“Veh”), 10 and 20 mg/kg doses of GAT358 in the conditioned gaping model of nausea where rats are infused for 2 min with novel 0.01% saccharin followed immediately by an injection of the appropriate drug dose [Vehicle (n=6), GAT358-10 (n=8) and GAT358-20 (n=8)]. Seventy two hours following conditioning the rats were infused for 2 min with 0.01% saccharin during the drug free TR Test while their orofacial responses were videotaped for subsequent scoring. Further assessed was the Veh, 5 and 10 mg/kg of GAT358 in the LDE test [Veh (n=6), GAT358-5 (n=8) and GAT358-10 (n=8)]. Group assignment was counterbalanced based upon previous drug experience. The rats were administered the appropriate drug dose 45 min prior to being placed in the enclosed dark chamber that allowed access to an open field area where the lighting was 100 lux. The activity of the rat while in the LDE test for 5 min was tracked by Ethovision (Noldus Information Technology) and subsequently the duration of time spent in the open field and activity (distance travelled (cm)/amount of time(sec)) was analyzed.
Results (all analyses were conducted using a one way ANOVA): […]

Data set [2] addresses T1, CB1 receptor (Homo sapiens, UniProt P21554). As to the kind of experiment: β-arrestin recruitment in CNR1 PathHunter cell line, allosteric modulation of CP55,940 response. The data set is classed as cell-based. As to conditions: Table 1, CP55,940 as agonist; for EC50: read-out: β-arrestin EC50.
The target in data set [3] is T1, CB1 receptor. Kind of data set: DiscoveRx HitHunter cAMP XS+ assay in cAMP Hunter cell line, allosteric modulation of CP55,940 response. The data set is classed as cell-based. The following applies: Table 1, preincubation with compound, then CP55,940 challenge, 20 μM forskolin; for EC50: read-out: cAMP EC50.
Data set [4] relates to rats. Kind of data set: Light Dark Emergence (LDE) Test of anxiety. The data set is classed as in vivo. As to conditions: 5 or 10 mg/kg, p>0.05. The protocol:
as §1
GAT358 was dissolved in a mixture of 4% DMSO, 1% Tween80, 1% Cremophor and 94% Saline (for doses of 5, 10 and 20 mg/kg) and injected at a volume of 3 ml/kg. Assessed was the vehicle (“Veh”), 10 and 20 mg/kg doses of GAT358 in the conditioned gaping model of nausea where rats are infused for 2 min with novel 0.01% saccharin followed immediately by an injection of the appropriate drug dose [Vehicle (n=6), GAT358-10 (n=8) and GAT358-20 (n=8)]. Seventy two hours following conditioning the rats were infused for 2 min with 0.01% saccharin during the drug free TR Test while their orofacial responses were videotaped for subsequent scoring. Further assessed was the Veh, 5 and 10 mg/kg of GAT358 in the LDE test [Veh (n=6), GAT358-5 (n=8) and GAT358-10 (n=8)]. […] The activity of the rat while in the LDE test for 5 min was tracked by Ethovision (Noldus Information Technology) and subsequently the duration of time spent in the open field and activity (distance travelled (cm)/amount of time(sec)) was analyzed. […]

Where two headings read alike, the source gives them in different places.

T1 sequence (P21554 whole entry): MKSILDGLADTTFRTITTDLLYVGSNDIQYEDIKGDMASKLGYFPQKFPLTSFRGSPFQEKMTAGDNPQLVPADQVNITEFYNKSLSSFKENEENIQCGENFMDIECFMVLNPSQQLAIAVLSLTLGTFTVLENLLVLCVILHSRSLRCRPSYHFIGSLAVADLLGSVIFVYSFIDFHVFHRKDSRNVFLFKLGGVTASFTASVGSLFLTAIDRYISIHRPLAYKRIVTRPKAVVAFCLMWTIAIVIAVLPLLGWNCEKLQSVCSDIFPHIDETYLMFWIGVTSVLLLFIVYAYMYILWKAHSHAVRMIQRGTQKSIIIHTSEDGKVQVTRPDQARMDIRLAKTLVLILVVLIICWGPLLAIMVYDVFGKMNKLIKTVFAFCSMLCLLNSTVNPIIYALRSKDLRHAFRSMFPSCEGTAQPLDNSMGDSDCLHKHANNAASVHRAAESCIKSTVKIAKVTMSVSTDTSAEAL

For the molecule `O=c1c(Nc2ccc(Cl)cc2)c(Nc2cccc(-c3cccc(N4CCCC4)n3)c2)c1=O` [Compound 38, 3-((4-Chlorophenyl)amino)-4-((3-(6-(pyrrolidin-1-yl)pyridin-2-yl)phenyl)amino)cyclobut-3-ene-1,2-dione], the “total activity of rats during the drug-free test with saccharin vs vehicle” value in the data set on rats [1] (10 mg/kg, Bonferroni p=0.006) was “significantly lower than the rats in the vehicle group”. Further, in the data set on rats [1] (20 mg/kg, Bonferroni p=0.012), the “total activity of rats during the drug-free test with saccharin vs vehicle” value was “significantly lower than the rats in the vehicle group”. Besides, the “conditioned gaping responses vs vehicle” value with rats [1] (10 and 20 mg/kg, drug-free TR test 72 h after conditioning, 2 min saccharin infusion, p>0.05) is “did not result in the expression of conditioned gaping or total aversive responses that differed significantly from the vehicle group”. Besides, the “total aversive responses (gaping, chin rubs and paw treads) vs vehicle” value in the data set on rats [1] (10 and 20 mg/kg, drug-free TR test 72 h after conditioning, p>0.05) is listed as “did not result in the expression of conditioned gaping or total aversive responses that differed significantly from the vehicle group”. Besides, the “conditional ingestive responding to saccharin infusion” value with rats [1] (10 and 20 mg/kg, drug-free TR test, p>0.05) is recorded as “did not alter conditional ingestive responding to saccharin infusion”. Besides, at CB1 receptor [2], the β-arrestin % inhibition is given as 107% and the EC50 – broadly, the concentration that produces a half-maximal response – was found to be 111 nM. Also, on CB1 receptor [3], the cAMP % inhibition is on record as 16% and the EC50 is above 10000 nM. Further, the “time spent in the open field” value with rats [4] (45 min before 5 min LDE test) was “did not significantly alter the time spent in the open field”. The “activity of rats during the 5 min in the LDE test” value in the data set with rats [4] (45 min before test) was “did not significantly alter”.

In the case of `O=C(Nc1cccc(Oc2ccccc2)c1)Nc1cccc(-c2cccc(N3CCCC3)n2)c1` [Compound 10l, 1-(3-Phenoxyphenyl)-3-(3-(6-(pyrrolidin-1-yl)pyridin-2-yl)phenyl)urea], on CB1 receptor [2], the β-arrestin % inhibition was determined as 117% and the EC50 stood at 86 nM. Besides, on CB1 receptor [3], the cAMP % inhibition is 57% and the EC50 stood at 2240 nM.

`O=C(Nc1cccc(-c2cccc(N3CCCC3)n2)c1)Nc1ccc(Cl)cc1CCCCOC1CCCCO1` (stereo not drawn) [Compound 23a, 1-(4-Chloro-2-(4-((tetrahydro-2H-pyran-2-yl)oxy)butyl)phenyl)-3-(3-(6-(pyrrolidin-1-yl)pyridin-2-yl)phenyl)urea]: on CB1 receptor [2], the β-arrestin % inhibition is recorded as 117% and the EC50 came out at 1090 nM. Moreover, on CB1 receptor [3], the cAMP % inhibition was determined as 41% and the EC50 came out at 820 nM.

On to `O=C(Nc1cccc(-c2cccc(N3CCCC3)n2)c1)Nc1ccc(Cl)c(C#CCCOC2CCCCO2)c1` (stereo not drawn) [Compound 21b, 1-(4-Chloro-3-(4-((tetrahydro-2H-pyran-2-yl)oxy)but-1-yn-1-yl)phenyl)-3-(3-(6-(pyrrolidin-1-yl)pyridin-2-yl)phenyl)urea], for which, on CB1 receptor [2], the β-arrestin % inhibition is on record as 111% and the EC50 was 208 nM. At CB1 receptor [3], the cAMP % inhibition is listed as 22% and the EC50 was above 10000 nM.

As for `O=C(Nc1cccc(-c2cccc(N3CCCC3)n2)c1)NC1CCCCC1` [Compound 10z, 1-Cyclohexyl-3-(3-(6-(pyrrolidin-1-yl)pyridin-2-yl)phenyl)urea], at CB1 receptor [2], the β-arrestin % inhibition is reported as 136% and the EC50 was 333 ± 30 nM. For the same molecule, at CB1 receptor [3], the cAMP % inhibition stood at 78% and the EC50 worked out at 659 nM.

`O=C(Nc1ccc(Cl)cc1)Nc1cccc(-c2ccnc(N3CCCC3)c2)c1` [Compound 57, 1-(4-Chlorophenyl)-3-(3-(2-(pyrrolidin-1-yl)pyridin-4-yl)phenyl)urea]: at CB1 receptor [2], the β-arrestin % inhibition was determined as 111% and the EC50 is 77 nM. Also, on CB1 receptor [3], the cAMP % inhibition is 50% and the EC50 amounted to 9790 nM.

`O=C(Nc1cccc(-c2cccc(N3CCCC3)n2)c1)Nc1ccccc1Cl` [Compound 10d, 1-(2-Chlorophenyl)-3-(3-(6-(pyrrolidin-1-yl)pyridin-2-yl)phenyl)urea]: at CB1 receptor [2], the β-arrestin % inhibition is 105% and the EC50 was determined as 2170 nM. For the same molecule, on CB1 receptor [3], the cAMP % inhibition came out at 39% and the EC50 was above 10000 nM.

`O=C(Nc1ccccc1)Nc1cccc(-c2cccc(N3CCCC3)n2)c1` [Compound 10q, 1-Phenyl-3-(3-(6-(pyrrolidin-1-yl)pyridin-2-yl)phenyl)urea]: at CB1 receptor [2], the β-arrestin % inhibition amounted to 135%. Besides, the EC50 at CB1 receptor [2] was determined as 110 nM; at CB1 receptor [3] it was 501 nM.

In the case of `O=C(Nc1ccc(Cl)cc1)Oc1cccc(-c2cccc(N3CCCC3)n2)c1` [Compound 31, 3-(6-(Pyrrolidin-1-yl)pyridin-2-yl)phenyl (4-chlorophenyl)carbamate], at CB1 receptor [2], the β-arrestin % inhibition was 58% and the EC50 turned out to be 8660 nM. In addition, on CB1 receptor [3], the cAMP % inhibition amounted to 8.8% and the 50% effective concentration (EC50) was above 10000 nM.
